Data published in patent US10485808B2, “Selective progesterone receptor modulators (SPRM) and stabilized estrogen level in patient” (BAYER PHARMA AKTIENGESELLSCHAFT, priority 2017, dated 2019).

Experiments:
Type in all cases: in vivo, human
[1] = tested on: healthy women of reproductive age; assay: Study 15818: hot flush events during treatment period; conditions: for Hot flush events, Events (%): 12 weeks
From the text: Example 3: Hot Flush Event in Study Subject Treated with Compound 1 (Cp1)
See full study description in Example 2.
Hot flush event were reported and monitored during treatment period.

[2] = tested on: women diagnosed with uterine fibroids; assay: Study 15788: estradiol concentrations in serum, 1x12 weeks treatment
Protocol: Example 4: Clinical Study in Women Diagnosed with Uterine Fibroids During a 1×12 Weeks/84 Days Treatment with Compound 1
Study protocol (N^o 15788):
Doses: 0.5 mg, 1 mg, 2 mg, or 4 mg once daily
(§1) Route of administration: Oral
Duration of treatment: 1×12 weeks (84 days)
Women, 18 to 50 years old, with uterine fibroids documented by transvaginal or abdominal ultrasound at screening with at least 1 uterine fibroid with largest diameter 3 cm and Heavy Menstrual Bleeding (HMB) 80 mL were eligible for enrolment in the study.
(§2) Following screening visit 1 (Visit 1), there was a screening period of up to 90 days to arrange for complete results of all baseline assessments. […] Every effort was made to keep the duration of the screening period to a minimum.
Eligible subjects were equally randomized to one of the treatment groups (Placebo, 0.5 mg, 1 mg, 2 mg, or 4 mg Compound 1). Treatment was started during the first week of the menstrual cycle following randomization. The treatment period consisted of 12 weeks (84 days) of daily tablet intake.
In this study, estradiol levels were measured • At the End of Treatment (EoT) visit and • Randomization visit 3.

[3] = tested on: women diagnosed with uterine fibroids; assay: Study 17541/A1: estradiol concentrations in serum, 1x24 weeks treatment; conditions: for Estradiol concentrations in serum, Max / Estradiol concentrations in serum, Mean / Estradiol concentrations in serum, Median / Estradiol concentrations in serum, Min: Cp1 2 mg once daily oral
Protocol: Example 6: Clinical Study in Women Diagnosed with Uterine Fibroids During a 1×24 Weeks Treatment with Compound 1
Study protocol (N^o 17541/A1):
as §1
Duration of treatment: 1×24 weeks
Women, 18 to 50 years old, with uterine fibroids documented by transvaginal or abdominal ultrasound at screening with at least 1 uterine fibroid with largest diameter >3 cm and Heavy Menstrual Bleeding (HMB)>80 mL were eligible for enrolment in the study.
as §2
Eligible subjects were equally randomized to treatment 2 mg of Compound 1. Treatment was started during the first week of the menstrual cycle following randomization. The treatment period consisted of 24 weeks of daily tablet intake.
In this study, estradiol levels were measured • Treatment Visit 3 (corresponding to the end of 12 weeks treatment), • Treatment Visit 6 (corresponding to the end of 24 weeks treatment).

[4] = Cp1 0.5 mg once daily oral, End of Treatment (12 weeks)
[5] = Cp1 0.5 mg once daily oral, Randomization
[6] = Cp1 1 mg once daily oral, End of Treatment (12 weeks)
[7] = Cp1 1 mg once daily oral, Randomization
[8] = Cp1 2 mg once daily oral, End of Treatment (12 weeks)
[9] = Cp1 2 mg once daily oral, Randomization
[10] = Cp1 4 mg once daily oral, End of Treatment (12 weeks)
[11] = Cp1 4 mg once daily oral, Randomization
[12] = Treatment Visit 3 (end of 12 weeks treatment)
[13] = Treatment Visit 6 (end of 24 weeks treatment)

## C[C@]12C[C@H](c3ccc(S(C)(=O)=O)cc3)C3=C4CCC(=O)C=C4CC[C@H]3[C@@H]1CC[C@@]2(O)C(F)(F)C(F)(F)F [Compound 1, (11β,17β)-17-Hydroxy-11-[4-(methylsulphonyl)phenyl]-17-(pentafluoroethyl)estra-4,9-dien-3-one]
[1]; Cp1 0.5 mg once daily oral
  Hot flush events, Events (%): 5.6%
[1]; Cp1 1.0 mg once daily oral
  Hot flush events, Events (%): 11.1%
[1]; Cp1 2.0 mg once daily oral
  Hot flush events, Events (%): 17.6%
[1]; Cp1 4.0 mg once daily oral
  Hot flush events, Events (%): 29.4%
[1]; all dose groups 0.5-4 mg
  Severe hot flushes: No severe hot flushes were reported
  Subjects reporting hot flush, total study subjects: 11
[2]; 0.5-4 mg once daily, 12 weeks
  Estradiol levels under treatment compared to baseline: moderately suppressed
  Safety concerns from the data analysed: no safety concerns were identified
[2]; [4]
  Estradiol concentrations in serum, Max: 357.5 pg/mL
  Estradiol concentrations in serum, Mean: 97.3 pg/mL
  Estradiol concentrations in serum, Median: 56.9 pg/mL
  Estradiol concentrations in serum, Min: 8.3 pg/mL
[2]; [5]
  Estradiol concentrations in serum, Max: 318.6 pg/mL
  Estradiol concentrations in serum, Mean: 115.78 pg/mL
  Estradiol concentrations in serum, Median: 100.2 pg/mL
  Estradiol concentrations in serum, Min: 7.1 pg/mL
[2]; [6]
  Estradiol concentrations in serum, Max: 384.9 pg/mL
  Estradiol concentrations in serum, Mean: 72.85 pg/mL
  Estradiol concentrations in serum, Median: 50 pg/mL
  Estradiol concentrations in serum, Min: 11.8 pg/mL
[2]; Cp1 1 mg once daily oral, End of Treatment (12 weeks), listed as Cp1
  Estradiol concentrations in serum, Median: 50.1 pg/mL
[2]; [7]
  Estradiol concentrations in serum, Max: 490.2 pg/mL
  Estradiol concentrations in serum, Mean: 120.72 pg/mL
  Estradiol concentrations in serum, Median: 103.65 pg/mL
  Estradiol concentrations in serum, Min: 21.5 pg/mL
[2]; [8]
  Estradiol concentrations in serum, Max: 433.9 pg/mL
  Estradiol concentrations in serum, Mean: 76.23 pg/mL
  Estradiol concentrations in serum, Median: 50 pg/mL
  Estradiol concentrations in serum, Min: 10.5 pg/mL
[2]; Cp1 2 mg once daily oral, End of Treatment (12 weeks), listed as Cp1
  Estradiol concentrations in serum, Median: 49.95 pg/mL
[2]; [9]
  Estradiol concentrations in serum, Max: 407.8 pg/mL
  Estradiol concentrations in serum, Mean: 111.25 pg/mL
  Estradiol concentrations in serum, Median: 96.6 pg/mL
  Estradiol concentrations in serum, Min: 6.7 pg/mL
[2]; [10]
  Estradiol concentrations in serum, Max: 255.3 pg/mL
  Estradiol concentrations in serum, Mean: 56.51 pg/mL
  Estradiol concentrations in serum, Median: 39 pg/mL
  Estradiol concentrations in serum, Min: 9.5 pg/mL
[2]; Cp1 4 mg once daily oral, End of Treatment (12 weeks), listed as Cp1
  Estradiol concentrations in serum, Median: 38.7 pg/mL
[2]; [11]
  Estradiol concentrations in serum, Max: 347.6 pg/mL
  Estradiol concentrations in serum, Mean: 117.05 pg/mL
  Estradiol concentrations in serum, Median: 101.7 pg/mL
  Estradiol concentrations in serum, Min: 6.8 pg/mL
[2]; all Doses, data not shown
  Mean estradiol values after the EoT: returned to baseline levels
[3]; 2 mg once daily, 24 weeks
  Estradiol levels under treatment compared to baseline: moderately suppressed
  Safety concerns from the data analysed: no safety concerns were identified
[3]; Baseline
  Estradiol concentrations in serum, Max: 644.2 pg/mL
  Estradiol concentrations in serum, Mean: 135.97 pg/mL
  Estradiol concentrations in serum, Median: 93.55 pg/mL
  Estradiol concentrations in serum, Min: 29.4 pg/mL
[3]; [12]
  Estradiol concentrations in serum, Max: 557.5 pg/mL
  Estradiol concentrations in serum, Mean: 77.46 pg/mL
  Estradiol concentrations in serum, Median: 47.50 pg/mL
  Estradiol concentrations in serum, Min: 11.0 pg/mL
[3]; [13]
  Estradiol concentrations in serum, Max: 132.5 pg/mL
  Estradiol concentrations in serum, Mean: 44.69 pg/mL
  Estradiol concentrations in serum, Median: 42.50 pg/mL
  Estradiol concentrations in serum, Min: 7.9 pg/mL
[3]; data not shown
  Mean estradiol values after the EoT: returned to baseline levels
